Assays:
SARS-CoV-2 [1] = assay: SARS-CoV-2 infection of HEK293T-hACE2 cells (flow cytometry); format: cell-based; details: HEK293T-hACE2, 100 nM, 72 h
cleaved caspase 3 = format: cell-based, African green monkey; details: Vero
[2] = test system: mitochondrial reactive oxygen species (mito-ROS); format: cell-based, human
STING = STING protein levels in Calu3 cells (flow cytometry); format: cell-based, human; details: SARS-CoV-2 infected Calu3 cells, data not shown
MX1 = format: cell-based, human; details: infected Calu3, vs vehicle treated
SARS-CoV-2 [3] = assay: SARS-CoV-2 infection of K18-hACE2 transgenic mice, lung viral titer; format: in vivo, mouse; details: 4 mg/kg per day intraperitoneally, 72 h post infection
Protocol: K18-hACE2 transgenic mice were infected with SARS-CoV-2 (10,000 PFU per mouse) intranasally and treated with Mito-MES (4 mg/kg per day intraperitoneally) (n=10) vs vehicle control (Ctrl) (saline 1% DMSO) (n=5 mice). Five mice (n=5) were treated with Mito-MES for 48 h before SARS-COV-2 infection and throughout the infection for 3 days (5 days in total) until mice were sacrificed 72 h post infection. Five mice (n=5) were treated with Mito-MES 8 h after the infection for 3 days (3 days in total) until mice were sacrificed 72 h post infection. The left lung was harvested from all mice, tissue was homogenized in mechanical dissociator and the supernatant was cryopreserved until it was used for viral titer. Viral titer was determined by two independent methods based on cytopathic effect (CPE) effect in Vero-E6 cells and based on an ELISA immunoassay that detected the presence of SARS-CoV-2 Spike S protein in Vero-E6 cells infected with lung supernatants from infected mice. FIG. 7-a summarizes the results of the viral replication by TCID50-assay based on CPE method. FIG. 7-b summarizes the results of the viral replication by TCID50-assay based on ELISA assay. Bars indicate mean±s.e.m.
The in vivo antiviral activity of Mito-MES was evaluated in mice. […] Specifically, K18-hACE2 transgenic mice, which express human ACE2, were infected with SARS-CoV-2.

SARS-CoV-2 [4] = assay: Post-exposure prophylaxis in two household-exposed parents (case report); format: in vivo, human
Source text: FIG. 8-a show the timeline of exposure, symptoms and diagnostic tests in household. Two parents [[…], A1 with history of chronic myelogenous leukemia (CML) and healthy parent 39 years, A2] were notified on Dec. 5, 2020 [defined as day 5 (D5)], that the schoolteacher (T1) of their child (C1) tested positive for SARS-CoV-2 and developed symptoms of Covid-19. C1 had 6-h exposure to T1 on November 30 (with masks) (D0). The family had no other exposure to any other person between November 20-30 (D-10 to D0) given Thanksgiving Day on November 26 (D-4). Several children and parents from the same school class were infected with Covid-19 within the first 2 weeks of December. C1 developed fever (100.4° F.;38° C.) and fatigue 2.5 days after exposure (DO) that lasted 3 days (D2-D5) and remained asymptomatic since then. The second child (C2) was asymptomatic until D12 when they developed fever (100.4° F.;38° C.), fatigue and coryza on D12-D14. A1 and A2 started Mito-MES on D4. […] A1, A2, C1 and C2 had fifteen (in total) negative NP SARS-CoV-2 PCR and each parent had 3 negative SARS-CoV-2 IgG serology over a period of 6 weeks (last NP PCR was on D42 and last SARS-CoV-2 IgG serology was on D45). The well-defined epidemiologic history around a major holiday and the timing (3-7 days) of development of symptoms in both children, confirmed that they both had Covid-19.
Two parents ([…], A1, and parent 39 years, A2) residing in Los Angeles, California were notified on Dec. 5, 2020 (defined as day 5 (D5); FIG. 8-a, C), that the schoolteacher (T1) of their child (C1) tested positive for SARS-CoV-2 and developed symptoms of Covid-19. C1 had 6-h exposure to T1 on November 30 (with masks) (DO). The family had no other exposure to any other person between November 20-30 (D-10 to DO) given Thanksgiving Day on November 26 (D-4). […]
One important consideration with COVID-19 testing is that it is often unclear how exactly the NP swab was obtained (by healthcare worker or not and whether the posterior or anterior nasopharynx were assessed). […]

Vero cells = details: uninfected Vero cultures, 10-1000 nM
[5] = cited from earlier work
[6] = humans, doses up to at least 80 mg/day for at least a year; cited from earlier work
Calu3 cells = assay: Seahorse mitochondrial respirometry and cellular bioenergetics in infected Calu3 cells
Protocol: Flow cytometry was used to determine the cellular content of Calu3 cells for mitochondrial reactive oxygen species (mito-ROS) based on the median fluorescence intensity (MFI) of the fluorochrome MitoSOX Red and was compared to a negative cell population (fluorescence minus one negative control for staining) (ΔMFI). Flow cytometry was used to determine the percent of SARS-CoV-2 infected Calu3 cells positive for MitoSOX Red. Calu3 and Vero cells were treated with DMSO vehicle control (Ctrl) or the mitochondrial antioxidants MitoTEMPO (25-1000 nM) (72 h) or Mito-MES (25-1000 nM) (72 h) and were infected with a fluorescent mNeonGreen SARS-CoV-2 (icSARS-CoV-2-mNG) (MOI 0.3) (48 h). Immunofluorescent analysis of viral replication and cellular oxidative stress was performed at 48 h post-infection. […] Seahorse XF Analyzer was used to determine mitochondrial respirometry and cellular bioenergetics [oxygen consumption rate (OCR) and extracellular acidification rate (ECAR)] of live Calu3 cells treated with Mito-MES (25-1000 nM) or vehicle control (ctrl) (72 h) and infected with SARS-CoV-2 (MOI 0.1) (48 h). […] Viral replication was determined by TCID50-assay (FIG. 3-d), cell cytotoxicity was assessed by the XTT assay in uninfected cells treated with dTPP (0.01-10 μM) (72 h) (FIG. 3-e). […]

Compound: COC1=C(OC)C(=O)C(CCCCCCCCCC[P+](c2ccccc2)(c2ccccc2)c2ccccc2)=C(C)C1=O.CS(=O)(=O)[O-] [Mito-MES, 10-(4,5-dimethoxy-2-methyl-3,6-dioxo-1,4-cyclohexadienyl) decyl triphenylphosphonium methanesulfonate]
- percent of SARS-CoV-2 infected cells (flow cytometry) (SARS-CoV-2 [1]): significantly reduced the percent of SARS-CoV-2 infected human non-cancerous HEK293T epithelial cells
- percent of infected cells positive for cleaved caspase 3 and MFI per cell (flow cytometry) (cleaved caspase 3; 100 nM): inhibits or reduces SARS-CoV-2-induced increase
- SARS-CoV-2-induced cleavage of caspase 3 (immunofluorescence) (cleaved caspase 3; 10-1000 nM): reduced by Mito-MES treatment
- mito-ROS generation (MitoSOX Red MFI and percent positive cells) [2]: reduced mito-ROS generation
- STING protein levels (STING): did not impact STING
- MX1 protein levels (MX1): increased MX1 protein levels
- lung viral titers (TCID50 by CPE and ELISA) compared to vehicle (SARS-CoV-2 [3]): viral titers were lower
- inflammation markers in plasma (SARS-CoV-2 [4]; both parents, 6 timepoints over 6 weeks): normal CRP, ferritin and IL-6 plasma levels
- plasma IgG to SARS-CoV-2 S1 protein (SARS-CoV-2 [4]; each parent, three timepoints over 5 weeks): undetectable levels of plasma IgG to SARS-CoV-2 S1 protein
- symptoms and virological/serological confirmation of infection (SARS-CoV-2 [4]; two parents, 20 mg/day oral, 6 weeks, repeated household exposure): remained asymptomatic and without virological and serological confirmation of infection
- cytotoxicity (XTT assay) (Vero cells): no observed cytotoxicity
- average elevation of fasting plasma concentrations ([5]; chronic supplementation about 40-80 mg/day, after about 10 days): about 5 ng/mL
- plasma concentration ([5]; humans, single 40 mg oral dose, after 24 h): about 2 ng/ml
- adverse events [6]: without any serious adverse events
- ROS (Calu3 cells; Calu3, 1000 nM): increased ROS
- mitochondrial respirometry (Calu3 cells; Calu3, 50-1000 nM): reduced mitochondrial respirometry

Reference: patent US20250090557A1 (priority 2020, published 2025)
